From ChEMBL document CHEMBL1157539, “Thousands of chemical starting points for antimalarial lead identification” (Nature, 2010)

Tested on: Plasmodium falciparum
Assay: GSK_TCMDC: Inhibition of Plasmodium falciparum 3D7 in whole erythrocytes, using parasite LDH activity as an index of growth.
Type: functional, organism-based
Details: Plasmodium falciparum, 3D7

Row | Structure (SMILES) | XC50
1 | CCN(CC)CCN(Cc1ccc(-c2ccc(C(F)(F)F)cc2)cc1)C(=O)Cn1c(CCc2cc(F)cc(F)c2)nc(=O)c2ccccc21 | 0.983 µM
2 | O=C(Cn1c(CCc2cccc(F)c2F)cc(=O)c2ccccc21)N(CCN1CCCC1)Cc1ccc(-c2ccc(C(F)(F)F)cc2)cc1 | 0.859 µM
3 | Cc1ccc(Oc2ccc(NC(=O)CNc3ccccc3N3CCCC3=O)cc2)cc1 | 0.366 µM
4 | CN1CCN(CC(O)CNC(=O)Nc2ccc(Br)cc2)CC1 (centres undefined) | 0.149 µM
5 | O=C(NCCCN1CCCCC1)c1ccc(Nc2nccc(Nc3ccc(Oc4ccccc4)cc3)n2)cc1 | 0.626 µM
6 | OC1=C2C(=Nc3ccccc3SC2c2ccccc2)c2ccccc21 (centres undefined) | 0.325 µM
7 | CCOC(=O)c1ccc(NC(=O)Nc2ccc(-c3ccc(-c4nc5ccccc5[nH]4)cc3)cc2)cc1 | 0.0223 µM
8 | COc1ccccc1CCNc1nc(C)cc(N[C@@H](CC(C)C)C(=O)NCc2cccs2)n1 | 0.793 µM
9 | COc1ccc(CNC(=O)c2cnc3c(O)cccc3c2Nc2cccc(NC(=O)c3ccc(F)cc3)c2)cc1 | 0.996 µM
10 | CCc1cn2c3c(cc(C(=O)N[C@@H](Cc4cc(F)cc(F)c4)[C@H](O)CNC4CCOCC4)cc13)N(C)S(=O)(=O)CC2 | 0.0336 µM
11 | COc1ccc2nccc(NC(=O)C3(O)CCC(NCc4ncc5c(c4Cl)OCCO5)CC3)c2n1 (centres undefined) | 0.254 µM
12 | Cc1sc(NC(=O)c2ccc([N+](=O)[O-])cc2Cl)c(C(N)=O)c1C | 0.931 µM
13 | O=C1C(c2ccccc2)=C(Nc2ccc(Cl)cc2)c2ccccc21 | 0.613 µM
14 | COc1ccc2c(=O)c(-c3ccc(OC(F)(F)F)cc3)c(C)[nH]c2c1 | 0.233 µM
15 | CC(=O)NCC(=O)NC1=NC(=N)N(OCc2ccc3ccccc3c2)C(C)(C)N1 | 0.0032 µM
16 | CN1CCN(CCCN(Cc2cccc(-c3ccc(CNCc4ccc5c(c4)OCO5)cc3)c2)C(=O)CCC2CCCC2)CC1 | 1 µM
17 | CC(=O)c1sc2ccccc2c1O | 0.88 µM
18 | Cc1ccc(N2C(=O)C3C(C2=O)C2(c4ccccc4)C(=O)C3(c3ccccc3)C(c3ccccc3)=C2c2ccccc2)cc1 (centres undefined) | 0.869 µM
19 | O=C1C(=Cc2c(O)ccc3ccccc23)SC(=NCc2ccccc2)N1Cc1ccccc1 | 0.155 µM
20 | O=C1c2ccccc2CN1CCCN1CCC(Oc2ccc(F)cc2)CC1 | 1.21 µM
21 | C=CCC1OC(=O)c2cc(OC)cc(OC)c21 (centres undefined) | 0.343 µM
22 | Cc1cc(Cl)c(S(=O)(=O)NC2CCCC2)cc1OCC(=O)NC1CCCCC1 | 0.385 µM
23 | C[C@H](Cc1ccc(OCCCCCOc2ccc(C[C@@H](C)NC[C@H](O)c3cccc(Cl)c3)cc2)cc1)NC[C@H](O)c1cccc(Cl)c1 | 0.19 µM
24 | Clc1nc2ccccn2c1C=Cc1ccc2ccccc2n1 | 0.267 µM

Row | Structure (SMILES) | XC50
25 | CC(=NNc1nc2ccccc2s1)c1ccccn1 | 1.12 µM
26 | Brc1ccc(Nc2ccnc3cc(-c4nccs4)ccc23)cc1Oc1ccnc2cc(-c3nccs3)ccc12 | 1.06 µM
27 | CS(=O)(=O)c1ccccc1CNC(=O)c1cccc(-c2ccc(-c3nc4cc(C(F)(F)F)ccc4[nH]3)cc2)c1 | 0.809 µM
28 | Cc1cccc(OCCCCON2C(=N)N=C(N)NC2(C)C)c1C | 0.0032 µM
29 | CC(C)CNC(=O)c1cncc(-c2cccc(CNC3Cc4ccccc4C3)c2)c1 | 0.786 µM
30 | CCCCc1ccc(Cc2cnc3nc(N)nc(N)c3c2C)cc1 | 0.235 µM
31 | Cc1cnc(NCC2CCCCC2)nc1NCC(=O)Nc1ccccc1 | 0.714 µM
32 | COc1ccc(CN(C)CCCc2ccc(NC(=O)Cc3ccc4nc(-c5ccccc5)ccc4c3)cc2)cc1OC | 0.534 µM
33 | CCNS(=O)(=O)c1ccc(Oc2ccc([N+](=O)[O-])cc2)cc1 | 0.169 µM
34 | COc1ccc(NC(=O)Nc2cccc(-c3ccc(-c4nc5cccc(C)c5[nH]4)s3)c2)cc1 | 0.671 µM
35 | Cc1cc(Nc2ccc(C(C)(C)C)cc2)c2[nH]ncc2n1 | 1.16 µM
36 | COc1cc(Br)ccc1N1CCN(CCCCNC(=O)c2ccc(NC(=O)c3ccc(Cl)cc3)cc2)CC1 | 0.758 µM
37 | CN(C)CCN(C)Cc1ccc(-c2ccc(NC(=O)c3cccc(Cl)c3)cc2)cc1 | 1.14 µM
38 | CO/C(=C\C=C\c1cc2cc(Cl)c(Cl)cc2[nH]1)C(=O)NCC(C)(C)CN(C)C | 1.16 µM
39 | O=C(/C=C/c1ccc(Cl)c(Cl)c1)NCCCCCN1CCCC(C(=O)Nc2cccc(Cl)c2)C1 (centres undefined) | 0.895 µM
40 | COc1ccc(-c2csc3ncnc(Cl)c23)cc1OC | 0.769 µM
41 | CC(C)N1CCN(C(=O)c2ccc(CN(C)CCCN3CCN(c4cccc(Cl)c4Cl)CC3)s2)CC1 | 0.994 µM
42 | Cc1cc(N)c2cc(NC(=O)c3cccc4ccccc34)ccc2n1 | 0.844 µM
43 | CC1CN(c2cnn(C/C=C/c3ccc(NC(=O)c4ccc5nonc5c4)cc3)c(=O)c2Cl)CC(C)N1 (centres undefined) | 0.786 µM
44 | N#Cc1ccc(C(=O)Nc2ccc(Cl)c(N3CCN(CCc4ccccc4)CC3)c2)cc1 | 0.929 µM
45 | COc1cc(C(=O)N2N=C(c3c(-c4ccccc4)c4cc(Br)ccc4[nH]c3=O)CC2c2cccc([N+](=O)[O-])c2)cc(OC)c1OC (centres undefined) | 0.943 µM
46 | O=C(Nc1ccc(-c2ccc(-c3nc4ccccc4[nH]3)s2)cc1)Nc1ccc(Cl)c(Cl)c1 | 0.165 µM
47 | COc1ccc2[nH]ccc(=NN=Cc3cccc(F)c3)c2c1 | 0.75 µM
48 | Cc1csc(-c2nc(NCc3cccnc3)ncc2-c2ccsc2)n1 | 1.19 µM

Row | Structure (SMILES) | XC50
49 | CCCCCCN1CCCN(Cc2cccc(NC(=O)c3cc4ccccc4s3)c2)CC1 | 0.66 µM
50 | Cc1cccc(-c2ccc(CNC3CCN(CC4Cn5c(=O)ccc6ccc(F)c4c65)CC3)cn2)c1 (centres undefined) | 1.53 µM
51 | COc1cccc(C(=O)Nc2ccc(Nc3nc(C)cc(N(C)C)n3)cc2)c1OC | 1.02 µM
52 | CCCNc1ccc(-c2cc(C(N)=O)c3[nH]cc(C4CCN(S(=O)(=O)CC)CC4)c3c2)cn1 | 0.817 µM
53 | CN1CCN(CC(=O)Nc2ccc(-c3ccc(-c4nc5ccccc5[nH]4)s3)cc2)CC1 | 0.299 µM
54 | O=C(Nc1cccc(C(F)(F)F)c1)c1cccc(S(=O)(=O)NC2CCCN(CC3CCCCC3)C2)c1 (centres undefined) | 0.857 µM
55 | O=C(NC1CCCCC1)N(Cc1cccc(-c2cccc(CNC3CCCC3)c2)c1)C1CCN(Cc2ccccc2)CC1 | 0.736 µM
56 | CCCCNCc1ccc(-c2nc(CN(CCCn3ccnc3)C(=O)NC3CC3c3ccccc3)cs2)cc1 (centres undefined) | 0.744 µM
57 | Cc1ccc(C(=O)NCC2CCN(c3ccc(C(F)(F)F)cc3NC(=O)c3ccco3)CC2)cn1 | 0.782 µM
58 | COc1ccc(NC(=O)[C@H](Cc2ccccc2)Nc2cc(C)nc(NCCc3ccccc3OC)n2)cc1 | 0.529 µM
59 | Fc1ccc(Nc2ccnc3cc(-c4ccc(CN5CCOCC5)o4)ccc23)c(Cl)c1 | 0.756 µM
60 | O=C(Nc1ccc(C(F)(F)F)cc1)c1ccc(S(=O)(=O)NC2CCN(CC3CCCCC3)CC2)cc1 | 0.731 µM
61 | C=CCn1c(=N)c(C(=O)NCc2ccc(F)cc2)cc2c(=O)n3cccc(C)c3nc21 | 1.17 µM
62 | CCOCCCn1c(=N)c(C(=O)NC(C)c2ccccc2)cc2c(=O)n3cccc(C)c3nc21 (centres undefined) | 1.2 µM
63 | O=C(NCCCCN1CCC(c2ccc3c(c2OCCO)CCCC3)CC1)c1ccc(-c2ccc(C(F)(F)F)cc2)cc1 | 0.855 µM
64 | CC(=O)Nc1ccc(C(=O)Nc2cccc(-c3cccc(-c4nc5cc(C(F)(F)F)ccc5[nH]4)c3)c2)cn1 | 0.0737 µM
65 | CC(Cc1ccc(OCc2ccccc2)c(Cl)c1)NCC(O)c1cccc(C(F)(F)F)c1 (centres undefined) | 0.94 µM
66 | Fc1ccc(-c2cc3ncnc(N4CCN(CCN5CCCC5)CC4)c3s2)cc1 | 0.74 µM
67 | Cc1c(C)c2c(c(C)c1O)CC[C@@](C)(C(=O)N1CCC(CCN3CCC(c4c[nH]c5ccccc45)CC3)CC1)O2 | 0.666 µM
68 | COc1ccc(OC)c(-c2cccc(-c3cccc(NC(=O)c4ccc([N+](=O)[O-])o4)c3)n2)c1 | 0.371 µM
69 | COc1cc2nc(NCCc3ccccc3)nc(NCCc3ccccc3)c2cc1OC | 0.282 µM
70 | Oc1ccc(CCNc2nc(NCCCOc3cccc(CN4CCCCC4)c3Cl)nc(N3CCNCC3)n2)cc1 | 1.37 µM
71 | Cn1cccc1CCNCc1ccc(-c2cccc(-c3nc4cc(F)ccc4[nH]3)c2)cc1 | 1.22 µM
72 | CC(C)(C)c1ccc(CN2CCC(CNC(=O)c3cc(-c4ccccc4Cl)cs3)C2)cc1 (centres undefined) | 0.856 µM

Row | Structure (SMILES) | XC50
73 | CNC(=O)c1cnc(Nc2ccc(N3CCN(C)CC3)cc2)nc1Nc1cccc([N+](=O)[O-])c1 | 0.288 µM
74 | O=C(Nc1ccccc1)N(Cc1cccc(-c2ccc(CNCc3ccc4c(c3)OCO4)cc2)c1)C1CCN(Cc2ccccc2)CC1 | 0.325 µM
75 | N#Cc1cccc(CN2CCCN(Cc3cccc(C(=O)Nc4ccc(Cl)cc4)c3)CC2)c1 | 1.18 µM
76 | O=S(=O)(NCCN1CCCC1)c1ccc(-c2cccc(CNCc3ccsc3)c2)s1 | 0.896 µM
77 | Cc1ccc(-c2ccc3c(c2)C=C(C(=O)NC2CCN(CCNC(=O)c4cccc(C(F)(F)F)c4)CC2)CCC3)cc1 | 0.512 µM
78 | O=C(/C=C/c1ccc(Cl)cc1Cl)NCCCCCN1CCC(c2c[nH]c3ccccc23)CC1 | 0.941 µM
79 | O=C(Nc1ccc(-c2ccc(CN3CCNCC3)cc2)cc1)c1cccc(Cl)c1 | 0.894 µM
80 | Cc1nc2c(-n3cc(Cn4ccnc4)c4ccccc43)ncnc2n1-c1ccc(Cl)cc1Cl | 0.994 µM
81 | Fc1ccc2[nH]c(-c3cccc(-c4cccc(CNCc5ccccc5)c4)c3)nc2c1 | 0.283 µM
82 | COc1ccccc1CCNc1ncnc2c1[nH]c1ccc(F)cc12 | 0.837 µM
83 | CC(C)C[C@H](NC(=O)[C@H](Cc1ccccc1)N(C[C@H](Cc1ccccc1)NC(=O)OC(C)(C)C)C(=O)C(F)(F)F)C(=O)NC1CCN(Cc2ccccc2)CC1 | 0.53 µM
84 | CCN(CCCN1CCCCC1)c1cc(C)nc(Nc2ccc(C)cc2Br)n1 | 0.172 µM
85 | Cn1cnc2c(SCc3ccccc3OCc3ccccc3)ncnc21 | 0.922 µM
86 | COc1ccc2nccc([C@@H](O)CN3CCC(NC[C@H](Cc4ccccc4)NC(=O)OC(C)(C)C)CC3)c2c1 | 0.228 µM
87 | O=C(/C=C/c1ccc(F)cc1)NC1CCC(CCN2CCCN(c3ccc(C(F)(F)F)cn3)CC2)CC1 (centres undefined) | 1.08 µM
88 | COc1ccccc1N1CCN(CCCCNC(=O)c2ccc(NC(=O)c3ccc(C(F)(F)F)cc3)cc2)CC1 | 0.304 µM
89 | CN(Cc1cccc(O)c1)C1CCCN(c2cc(NC(=O)c3ccc(F)cc3)ccn2)C1 (centres undefined) | 1.07 µM
90 | CCc1ccc(N2C(=O)C3C(Cc4ccc(OC(C)(C)C)cc4)NC4(C(=O)N(Cc5ccccc5)c5ccc(F)cc54)C3C2=O)cc1 (centres undefined) | 0.8 µM
91 | COC(=O)C(NC(=O)NC1CCN(c2ccnc(Nc3ccc(F)cc3)n2)C1)c1ccccc1 (centres undefined) | 1.05 µM
92 | CCC1N=C(N)N=C(N)N1OCc1ccc(Cl)c(Cl)c1 (centres undefined) | 0.00335 µM
93 | COc1ccc(CNc2nccc3ccc(-c4ccc(N)nc4)cc23)cc1 | 0.979 µM
94 | Fc1ccc(-c2oc(C3CCN(CCc4ccc(-c5noc(=S)[nH]5)cc4)CC3)nc2COCC(F)(F)F)cc1 | 0.418 µM
